# Measured values: patent US8993562B2, “Imidazo[1,2-b]pyridazines, processes, uses, intermediates and compositions” (Ferrer Internacional, S.A., priority 2006, dated 2015)
# Legend:
# male CD1 mice = experiment: In vivo predictive sedation-hypnosis test (traveled distance); details: Mus musculus, ip, 0.5 h, traveled distance over 30 min versus control, read-out: % inhib motor activity; for inhibition in vivo at 0.98 µmol/kg: 0.98 μmol/kg intraperitoneal; for inhibition in vivo at 98 µmol/kg: 98.0 μmol/kg intraperitoneal
# Protocol: b) In Vivo Determination of Predictive Sedative-hypnotic Action
# The in vivo effects of these compounds were assessed by a predictive sedation-hypnosis test in mice (D. J. Sanger et al., Eur. J. Pharmacol., 313, 35-42, 1996; and G. Griebel et al., Psychopharmacology, 146, 205-213, 1999).
# Groups of 5-8 male CD1 mice, weighing 22-26 g at the time of test, were used. […] Compounds were suspended in 0.25% agar with one drop of Tween in a volume of 10 mL/kg. Control animals were given the vehicle alone. Using a Smart System (Panlab, S. L., Spain) the traveled distance in cm is recorded for each mouse at 5-minutes intervals during a period of 30 minutes after dosing. The inhibition percentage of traveled distance of treated animals versus control animals (the first 5 minutes were discarded) was calculated.
# α2-GABAA receptor = experiment: Ligand-binding assay, radiolabeled flumazenil competition, spinal cord membranes; details: rat spinal cord membranes, radiolabeled flumazenil 1 nM
# Protocol: (§1) a) Ligand-binding Assays. Determination of the Affinity of Test Compounds for α1- and α2-GABAA Receptor
# (§2) Male Sprague-Dawley rats weighing 200-250 g at the time of experiment were used. After decapitation of the animal, the cerebellum (tissue that mostly contains α1-GABAA receptor) and spinal cord (tissue that mostly contains α2-GABAA receptor) were removed. The membranes were prepared according to the method by J. Lameh et al. (Prog. Neuro-Psychopharmacol. Biol. Psychiatry, 24, 979-991, 2000) and H. Noguchi et al. (Eur J Pharm, 434, 21-28, 2002) with slight modifications. Once the tissues weighed, they were suspended in 50 mM Tris.HCl (pH 7.4), 1:40 (v/v), or sucrose 0.32 M in the case of spinal cord, homogenized and then centrifuged at 20000 g for 10 minutes at 7° C. The resulting pellet was resuspended under the same conditions and centrifuged again. The pellet was finally resuspended on a minimum volume and kept at −80° C. overnight. A slight modification was used in the case of spinal cord at the first centrifugation step. Centrifugation speed was at 1000 g and the supernatant was collected instead of discarded as in cerebellum. Then, supernatant was centrifuged at 20000 g and resuspended twice more under the same conditions described above for cerebellum. On the next day, the process was repeated until the final pellet was resuspended at a ratio of 1:10 (v/v) in the case of cerebellum and at a ratio of 1:5 (v/v) in the case of spinal cord.
# (§3) Affinity was determined by competitive tests using radiolabeled flumazenil as ligand. The tests were performed according to the methods described by S. Arbilla et al. (Eur. J. Pharmacol., 130, 257-263, 1986); and Y. Wu et al. (Eur. J. Pharmacol., 278, 125-132, 1995) using 96-well microtiter plates. The membranes containing the study receptors, flumazenil (radiolabeling at a final concentration of 1 nM) and ascending concentrations of test compounds (in a total volume of 230 μl in 50 mM [pH 7.4] Tris.HCl buffer) were incubated. Simultaneously, the membranes were only incubated with the radiolabeled flumazenil (total binding, 100%) and in the presence of an elevated concentration of unradiolabeled flumazenil (non-specific binding, % estimation of radiolabeled ligand). The reactions started on adding the radiolabeled ligand followed by incubation for 60 minutes at 4° C. At the end of the incubation period, 200 μl of reaction were transferred to a multiscreen plate (Millipore) and filtered using a vacuum manifold and then washed three times with cold test buffer. The multiscreen plates were equipped with a GF/B filter that retained the membranes containing the receptors and the radiolabeled ligand which had been bound to the receptors. After washing, the plates were left till dry. Once dried, scintillation liquid was added and left under stirring overnight. The next day the plates were counted using a Perkin-Elmer Microbeta scintillation counter.
# (§4) For analysis of the results the percentage of specific binding for every concentration of test compound was calculated as follows: specific binding−(X−N/T−N)×100 where, X: amount of bound ligand for every concentration of compound. T: total binding, maximum amount bound to the radiolabeled ligand. N: non-specific binding, amount of radiolabeled ligand bound in a non-specific way irrespective of the receptor used.
# (§5) Every concentrations of compound were tested in triplicate and their mean values were used to determine the experimental values of % specific binding versus the concentration of compound. Affinity data are expressed as % inhibition at 10^−5M and 10^−7M concentrations.
# α1-GABAA receptor = experiment: Ligand-binding assay, radiolabeled flumazenil competition, cerebellum membranes; details: rat cerebellum membranes, radiolabeled flumazenil 1 nM
# Protocol: as §1, §2, §3, §4, §5
Compound,inhibition in vivo at 0.98 µmol/kg (male CD1 mice) [%],inhibition in vivo at 98 µmol/kg (male CD1 mice) [%],"% inhib 10^−5 M, affinity for the α2-subunit of the GABAA receptor (α2-GABAA receptor) [%]","% inhib 10^−7 M, affinity for the α2-subunit of the GABAA receptor (α2-GABAA receptor) [%]","% inhib 10^−5 M, affinity for the α1-subunit of the GABAA receptor (α1-GABAA receptor) [%]","% inhib 10^−7 M, affinity for the α1-subunit of the GABAA receptor (α1-GABAA receptor) [%]"
"CCCN(CCC)C(=O)Cc1c(-c2ccccc2)nc2ccc(OC)nn12 [Example 26, 2-(6-Methoxy-2-phenyl-imidazo[1,2-b]pyridazin-3-yl)-N,N-dipropyl-acetamide]",19.2,91.5,84.5,27.4,100.0,73.5
"CCCN(CCC)C(=O)Cc1c(-c2ccccc2)nc2ccc(C)nn12 [Example 35, 2-(6-Methyl-2-phenyl-imidazo[1,2-b]pyridazin-3-yl)-N,N-dipropyl-acetamide]",6.76,80.6,92.5,57.9,100.2,97.5
"CCCN(CCC)C(=O)Cc1c(-c2ccc(F)cc2)nc2ccc(OC)nn12 [Example 41, 2-[2-(4-Fluoro-phenyl)-6-methoxy-imidazo[1,2-b]pyridazin-3-yl]-N,N-dipropyl-acetamide]",15.7,91.2,85.3,17.0,99.8,75.4
"CCCN(CCC)C(=O)Cc1c(-c2ccc(F)cc2)nc2ccc(OCC)nn12 [Example 43, 2-[6-Ethoxy-2-(4-fluoro-phenyl)-imidazo[1,2-b]pyridazin-3-yl]-N,N-dipropyl-acetamide]",,95.7,80.3,20.1,99.5,49.9
"COc1ccc2nc(-c3ccc(F)cc3)c(CC(=O)N3CCCCC3)n2n1 [Example 65, 2-[2-(4-Fluoro-phenyl)-6-methoxy-imidazo[1,2-b]pyridazin-3-yl]-1-piperidin-1-yl-ethanone]",,95.5,78.5,16.3,99.5,58.5
"CCOc1ccc2nc(-c3ccc(F)cc3)c(CC(=O)N(CC)CC)n2n1 [Example 66, 2-[6-Ethoxy-2-(4-fluoro-phenyl)-imidazo[1,2-b]pyridazin-3-yl]-N,N-diethyl-acetamide]",,96,79.4,7.8,98.3,50.4
"CCOc1ccc2nc(-c3ccc(F)cc3)c(CC(=O)N3CCCCC3)n2n1 [Example 67, 2-[6-Ethoxy-2-(4-fluoro-phenyl)-imidazo[1,2-b]pyridazin-3-yl]-1-piperidin-1-yl-ethanone]",,90.8,83.7,8.8,98.9,42.2
"COc1ccc(-c2nc3ccc(OC)nn3c2CC(=O)N2CCCCC2)cc1 [Example 78, 2-[6-Methoxy-2-(4-methoxy-phenyl)-imidazo[1,2-b]pyridazin-3-yl]-1-piperidin-1-yl-ethanone]",,91.1,,,98.3,26.5
"Cc1ccc(NC(=O)Cc2c(-c3ccc(C)cc3)nc3ccc(C)nn23)cc1 [Example 87, 2-(6-Methyl-2-p-tolyl-imidazo[1,2-b]pyridazin-3-yl)-N-p-tolyl-acetamide]",,90.7,,,99.3,57.2
"Cc1ccc(-c2nc3ccc(C)nn3c2CC(=O)NC2CCCC2)cc1 [Example 91, N-Cyclopentyl-2-(6-methyl-2-p-tolyl-imidazo[1,2-b]pyridazin-3-yl)-acetamide]",,93,,,99.1,45.8
"Cc1ccc(-c2nc3ccc(C)nn3c2CC(=O)NC2CC2)cc1 [Example 93, N-Cyclopropyl-2-(6-methyl-2-p-tolyl-imidazo[1,2-b]pyridazin-3-yl)-acetamide]",,93.2,,,100.0,78.2
"Cc1ccc(-c2nc3ccc(C)nn3c2CC(=O)Nc2ccc3ccccc3n2)cc1 [Example 94, 2-(6-Methyl-2-p-tolyl-imidazo[1,2-b]pyridazin-3-yl)-N-quinolin-2-yl-acetamide]",,93.5,,,100.1,65.1
"Cc1ccc(-c2nc3ccc(C)nn3c2CC(=O)NN2CCOCC2)cc1 [Example 105, 2-(6-Methyl-2-p-tolyl-imidazo[1,2-b]pyridazin-3-yl)-N-morpholin-4-yl-acetamide]",,94,,,98.8,56.0
"Cc1ccc(-c2nc3ccc(C)nn3c2CC(=O)NN2CCCCC2)cc1 [Example 106, 2-(6-Methyl-2-p-tolyl-imidazo[1,2-b]pyridazin-3-yl)-N-piperidin-1-yl-acetamide]",,94,,,99.5,53.7
